# Reference: ChEMBL document CHEMBL1201862, “PubChem BioAssay data set” (2004)
# Active and inactive are the calls of the source.
# Assays:
# [1] = target: Cytochrome P450 3A4 (Homo sapiens, UniProt P08684); details: Potency;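 further: confirmatory qHTS run detecting inhibitors and substrates of CYP3A4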
# [2] = target: T1, Coagulation factor XII (Homo sapiens, UniProt P00748); format: functional;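 further: activated factor XIIa alpha cleaving a fluorogenic AMC peptide substrate; inhibitor potency from loss of enzyme activity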
# T1 sequence (P00748 whole entry): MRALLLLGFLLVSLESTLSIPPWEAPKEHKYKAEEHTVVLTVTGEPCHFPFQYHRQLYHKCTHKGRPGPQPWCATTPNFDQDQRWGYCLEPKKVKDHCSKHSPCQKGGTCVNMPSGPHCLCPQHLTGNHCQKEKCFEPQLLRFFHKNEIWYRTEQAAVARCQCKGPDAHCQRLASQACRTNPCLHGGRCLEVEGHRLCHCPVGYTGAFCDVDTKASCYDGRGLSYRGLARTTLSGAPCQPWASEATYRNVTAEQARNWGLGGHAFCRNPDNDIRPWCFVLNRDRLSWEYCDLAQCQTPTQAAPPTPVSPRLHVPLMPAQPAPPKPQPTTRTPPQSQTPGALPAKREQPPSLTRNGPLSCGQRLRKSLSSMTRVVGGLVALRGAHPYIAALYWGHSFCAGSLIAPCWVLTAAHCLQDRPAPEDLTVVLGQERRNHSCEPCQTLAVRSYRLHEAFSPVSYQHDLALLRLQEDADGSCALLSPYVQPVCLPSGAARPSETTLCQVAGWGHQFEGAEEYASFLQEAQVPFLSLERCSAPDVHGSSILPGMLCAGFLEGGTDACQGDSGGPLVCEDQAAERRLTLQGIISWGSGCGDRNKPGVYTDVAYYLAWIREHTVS
# [3] = target: T2, Adenosylmethionine-8-amino-7-oxononanoate aminotransferase (Mycobacterium tuberculosis, UniProt P9WQ81); assay: Mycobacterium tuberculosis BioA enzyme inhibitor Measured in Biochemical System Using Plate Reader - 2163-02_Inhibitor_Dose_CherryPick_Activity.; format: functional, Mycobacterium tuberculosis UT205
# T2 sequence (P9WQ81 whole entry): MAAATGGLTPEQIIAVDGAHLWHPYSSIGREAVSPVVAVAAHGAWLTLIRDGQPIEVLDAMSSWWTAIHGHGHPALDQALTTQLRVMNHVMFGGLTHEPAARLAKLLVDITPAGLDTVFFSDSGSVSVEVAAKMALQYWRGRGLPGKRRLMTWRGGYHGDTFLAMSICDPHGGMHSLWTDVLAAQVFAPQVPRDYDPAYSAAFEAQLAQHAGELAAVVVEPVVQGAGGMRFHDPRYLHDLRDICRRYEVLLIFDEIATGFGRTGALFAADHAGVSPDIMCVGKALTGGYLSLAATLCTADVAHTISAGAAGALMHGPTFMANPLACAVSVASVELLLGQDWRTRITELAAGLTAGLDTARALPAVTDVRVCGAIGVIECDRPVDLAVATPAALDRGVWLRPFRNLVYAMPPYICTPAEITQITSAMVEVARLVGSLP
# [4] = target: DNA dC->dU-editing enzyme APOBEC-3G (Homo sapiens, UniProt Q9HC16); assay: Dose Response confirmation of small molecule APOBEC3G DNA Deaminase Inhibitors via a fluorescence-based single-stranded DNA deaminase assay. [Related pubchem assays (depositor defined):AID493012, AID493028]; format: functional
# [5] = target: FAD-linked sulfhydryl oxidase ALR (Homo sapiens, UniProt P55789); assay: ALR-catalysed DTT oxidation blockers – biochemical, H2O2 detection, luminescence, cherry-pick, dose response (AID 493248)
# [6] = target: Neurotensin receptor type 1 (Homo sapiens, UniProt P30989); format: functional;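 further: Image-based confirmatory dose-response assay measuring agonist activity at NTR1; NTR1-expressing U2OS osteosarcoma cells imaged for beta-arrestin GFP spot formation; agonist potency where compounds increase beta-arrestin recruitment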
# [7] = viability of HCT116 lacking mutant beta-catenin – cell-based, human colon tumor, dose response (AID 1045); format: functional;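 further: HCT116 colon tumor cells with beta catenin knocked out; cells exposed to compound for 60 hours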
# [8] = viability of PTEN-deleted HCT116 cells – cell-based, HCT116 PTEN knockout, dose response (AID 1047); format: functional;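 further: HCT116 colon tumor cells with PTEN knocked out; cells exposed to compound for 60 hours before readout; potency for loss of cell viability measured by luminescence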
# [9] = Luminescence Cell-Based Dose Retest to Confirm Inhibitors of Cancer Stem Cells. [Related pubchem assays (depositor defined):AID2717, AID2721]; format: functional; details: Homo sapiens
# [10] = luciferase reporter signal suppression in cells – H4 neuroglioma cells, luminescence, dose response (AID 1990); format: functional, cell-based
# [11] = HEK-293T viability loss after treatment – luminescence, T-cell screen hits, cytotoxicity control for TCR NF-kB inhibitor project, dose response (AID 489026); format: functional, cell-based;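 further: cells exposed to compound about 14 hours before the viability readout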
# [12] = alpha-synuclein stem-loop luciferase translation blockers – H4 neuroglioma cells, luminescence, confirmation (AID 1988); format: functional, cell-based
# [13] = Luminescence Cell-Based Dose Response HTS to Identify Inhibitors of 5'UTR Stem-Loop Driven Prion Protein mRNA Translation in H4 Neuroglioblastoma Cells. [Related pubchem assays: 1827 (Project Summary), 1813 (Primary HTS)]; format: functional
# [14] = system: INS1; assay: INS-1E survival protection against cytokine death – cell-based, luminescence, retest, dose response (AID 449756); format: functional; details: Rattus norvegicus;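 further: cell death triggered by IL-1 beta plus TNF-alpha plus IFN-gamma mixture; protective hits raise ATP signal compared with cytokine alone wells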
# Sequence of Cytochrome P450 3A4 (P08684 whole entry): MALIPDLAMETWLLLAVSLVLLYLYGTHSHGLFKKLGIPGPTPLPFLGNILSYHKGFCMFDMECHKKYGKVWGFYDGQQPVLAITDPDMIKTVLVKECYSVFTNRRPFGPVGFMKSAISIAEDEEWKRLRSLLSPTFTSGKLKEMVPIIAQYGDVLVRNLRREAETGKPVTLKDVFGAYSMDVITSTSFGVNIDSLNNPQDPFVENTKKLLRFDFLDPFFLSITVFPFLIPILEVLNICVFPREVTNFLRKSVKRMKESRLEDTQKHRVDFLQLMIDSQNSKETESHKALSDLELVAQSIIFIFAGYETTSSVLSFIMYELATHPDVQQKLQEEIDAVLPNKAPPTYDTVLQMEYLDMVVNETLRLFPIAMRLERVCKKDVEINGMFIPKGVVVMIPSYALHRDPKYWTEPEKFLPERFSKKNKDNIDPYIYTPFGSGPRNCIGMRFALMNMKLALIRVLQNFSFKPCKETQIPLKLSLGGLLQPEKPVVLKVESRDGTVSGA
# Sequence of Neurotensin receptor type 1 (P30989 whole entry): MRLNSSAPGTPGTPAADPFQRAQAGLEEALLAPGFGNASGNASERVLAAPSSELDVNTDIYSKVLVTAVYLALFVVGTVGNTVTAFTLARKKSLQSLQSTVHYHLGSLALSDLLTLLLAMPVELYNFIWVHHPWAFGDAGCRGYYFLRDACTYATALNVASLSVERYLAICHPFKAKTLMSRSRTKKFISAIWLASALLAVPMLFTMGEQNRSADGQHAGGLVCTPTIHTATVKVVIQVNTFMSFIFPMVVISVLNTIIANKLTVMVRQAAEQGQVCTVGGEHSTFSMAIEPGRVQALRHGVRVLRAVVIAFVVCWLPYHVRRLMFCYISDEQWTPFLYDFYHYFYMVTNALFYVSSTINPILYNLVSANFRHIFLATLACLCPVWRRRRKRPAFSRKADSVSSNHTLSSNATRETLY
# Sequence of DNA dC->dU-editing enzyme APOBEC-3G (Q9HC16 whole entry): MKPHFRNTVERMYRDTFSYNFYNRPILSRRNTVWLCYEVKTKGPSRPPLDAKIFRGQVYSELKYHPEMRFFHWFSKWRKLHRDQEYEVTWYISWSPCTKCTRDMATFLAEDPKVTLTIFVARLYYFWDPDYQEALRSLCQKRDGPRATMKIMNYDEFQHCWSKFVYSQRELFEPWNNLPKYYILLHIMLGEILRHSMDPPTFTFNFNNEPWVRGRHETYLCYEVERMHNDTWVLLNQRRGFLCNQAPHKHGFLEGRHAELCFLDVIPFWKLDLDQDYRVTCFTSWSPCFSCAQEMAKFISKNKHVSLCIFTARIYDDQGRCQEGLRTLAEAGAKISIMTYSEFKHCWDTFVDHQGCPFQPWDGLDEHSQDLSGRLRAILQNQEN
# Sequence of FAD-linked sulfhydryl oxidase ALR (P55789 whole entry): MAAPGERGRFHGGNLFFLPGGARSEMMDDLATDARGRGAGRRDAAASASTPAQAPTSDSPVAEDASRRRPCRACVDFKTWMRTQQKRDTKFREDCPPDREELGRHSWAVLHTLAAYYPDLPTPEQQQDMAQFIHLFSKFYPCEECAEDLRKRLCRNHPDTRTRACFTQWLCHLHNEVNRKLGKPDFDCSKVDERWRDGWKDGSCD
smiles,measurement,setting,value
CCCCNc1nc(C)nc2c1nc(-c1ccccc1)n2CCCN(C)C,AC50,[1],15.8 µM (inconclusive)
Cc1cccc(N2N=C(C(=O)N3CC(=O)Nc4ccccc43)CCC2=O)c1,IC50,[2],> 50 µM (inactive)
O=C(Nc1ccccc1)N1CCN(Cc2ccc3c(c2)OCO3)CC1,AC50,[3],2.63 µM (active)
CCCCn1c(-c2ccco2)n[nH]c1=S,IC50,[4],8.1 µM (active)
same,AC50,[5],33.6 µM (active)
O=C1CC(c2ccccc2O)Oc2ccc(O)cc21 (centres undefined),AC50,[1],25.1 µM (inconclusive)
Cc1cc(C)cc(N2C(=O)NC(=O)/C(=C/c3cccn3-c3ccc(Cl)cc3)C2=O)c1,EC50,[6],10.6 µM (active)
same,EC50,[7],26.1 µM (active)
same,EC50,[8],31.6 µM (active)
same,AC50,[9],1.04 µM (active)
Cc1nc(Nc2nc(O)c3c(n2)CCC3)nc2ccccc12,EC50,[10],> 120 µM (not active)
same,IC50,[11],> 80 µM (inactive)
same,EC50,[12],9.61 µM (active)
same,EC50,[13],> 120 µM (not active)
O=[N+]([O-])c1ccc(Cl)c(/C=N/n2c(S)nnc2-c2ccncc2)c1,IC50,[4],4.79 µM (active)
O=C(c1ccc(Cl)cc1)C(CN1CCCCC1)c1ccccc1 (centres undefined),EC50,[6],14.7 µM (active)
same,AC50,[14],19.4 µM (active)
COc1ccc(C2Oc3cc(OC)cc(OC)c3CC2O)cc1 (centres undefined),AC50,[1],20 µM (inconclusive)
COc1ccc(/C=N/NC(=O)CCn2cnc3ccccc32)cc1,IC50,[2],> 50 µM (inactive)
